These results are taken from ChEMBL document CHEMBL1155740, “Dicerandrols, new antibiotic and cytotoxic dimers produced by the fungus Phomopsis longicolla isolated from an endangered mint” (2001).

Activity calls are given as the source filed them. The calls are words filed in the database; no cut-off is given here.

The subject of test [1] is Staphylococcus aureus. The experiment in a line: Antibacterial activity against Staphylococcus aureus at 30 ug after overnight incubation by agar diffusion method. The conditions noted are these: read-out: IZ. It counts as functional.
For a further test, the system named is A549. The experiment in a line: Cytotoxicity against human A549 cells after 72 hrs. The class given is functional.
The subject of the next test is HCT-116. Nature of the test: Cytotoxicity against human HCT116 cells after 72 hrs. It counts as functional.
The subject of the next test is Saccharomyces cerevisiae. The experiment in a line: Antifungal activity against Saccharomyces cerevisiae at 300 ug/disk. It counts as functional, organism-based.
Test [2] has as its system Staphylococcus aureus. The experiment in a line: Antibacterial activity against Staphylococcus aureus at 100 ug/disk after overnight incubation by agar diffusion method. The class given is functional. The conditions noted are these: read-out: IZ.
The next test relates to Geotrichum candidum. The experiment in a line: Antifungal activity against Geotrichum candidum at 300 ug/disk. The class given is functional, organism-based.
For test [3], the system named is Bacillus subtilis. The experiment in a line: Antibacterial activity against Bacillus subtilis at 100 ug/disk after overnight incubation by agar diffusion method. It counts as functional. The conditions noted are these: read-out: IZ.
Test [4] concerns Bacillus subtilis. Nature of the test: Antibacterial activity against Bacillus subtilis at 30 ug after overnight incubation by agar diffusion method. It counts as functional, organism-based.

Turning to `NC[C@@H]1O[C@H](O[C@H]2[C@@H](O)[C@H](O[C@@H]3[C@@H](O)[C@H](N)C[C@H](N)[C@H]3O[C@H]3O[C@H](CN)[C@@H](O)[C@H](O)[C@H]3N)O[C@@H]2CO)[C@H](N)[C@@H](O)[C@@H]1O` [FRAMYCETIN], the zone of inhibition at 30 µg/disc in the test with Staphylococcus aureus [1] was found to be 9 mm.

For the molecule `COc1cc([C@@H]2c3cc4c(cc3[C@@H](O[C@@H]3O[C@@H]5CO[C@@H](C)O[C@H]5[C@H](O)[C@H]3O)[C@H]3COC(=O)[C@H]23)OCO4)cc(OC)c1O` [ETOPOSIDE], the results for the IC100 in the test with A549 and with HCT-116 were 30 µg/mL and 125 µg/mL, respectively.

Consider `CC(=O)OC[C@]12Oc3ccc(-c4ccc5c(c4O)C(=O)C4=C(O)C[C@@H](C)[C@@H](OC(C)=O)[C@@]4(COC(C)=O)O5)c(O)c3C(=O)C1=C(O)C[C@@H](C)[C@H]2OC(C)=O` [DICERANDROL C], for which the values for the IC100 with A549 and in the test on HCT-116 were 1.8 µg/mL and 7 µg/mL, respectively. Also, the result in the test on Saccharomyces cerevisiae and in the test with Geotrichum candidum was inactive. Moreover, the results for the zone of inhibition at 100 µg/disc in the test on Staphylococcus aureus [2] and in the test with Bacillus subtilis [3] were 7 mm and 8 mm, respectively.

For `CC(=O)OC[C@]12Oc3ccc(-c4ccc5c(c4O)C(=O)C4=C(O)C[C@@H](C)[C@@H](OC(C)=O)[C@@]4(CO)O5)c(O)c3C(=O)C1=C(O)C[C@@H](C)[C@H]2OC(C)=O` [DICERANDROL B], the IC100 in the test with A549 and in the test on HCT-116 was 1.8 µg/mL throughout. The result in the test with Saccharomyces cerevisiae and in the test with Geotrichum candidum was inactive. The zone of inhibition at 100 µg/disc in the test with Staphylococcus aureus [2] was 8.5 mm; with Bacillus subtilis [3] it was 9.5 mm.

Molecule NYSTATIN yielded an inhibition zone (IZ) in the test with Bacillus subtilis [4] of 12 mm.

`CC(=O)O[C@@H]1[C@H](C)CC(O)=C2C(=O)c3c(ccc(-c4ccc5c(c4O)C(=O)C4=C(O)C[C@@H](C)[C@@H](OC(C)=O)[C@@]4(CO)O5)c3O)O[C@@]21CO` [DICERANDROL A]: the IC100 in the test with A549 and with HCT-116 was 7 µg/mL in each case. Moreover, the outcome with Saccharomyces cerevisiae and with Geotrichum candidum was inactive. The zone of inhibition at 100 µg/disc is 10.8 mm with Staphylococcus aureus [2] and 11 mm with Bacillus subtilis [3].
